Results from patent US20090325959A1 (priority 2008, published 2009).
Read-outs that look alike come from different tables or passages of the source.

Key:
[1] = biological target: T1, ROCK1 (Homo sapiens, UniProt Q13464); assay: Rho kinase inhibition assay (IMAP fluorescence polarization), ROCK1; format: biochemical;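 note: kinase reaction run 60 min at room temperature, then phosphorylated substrate captured on IMAP beads for 30 min, with fluorescence polarization read in mP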
T1 construct: purchased Upstate/Chemicon 14-601
T1 sequence (Q13464 17-535 limits assumed): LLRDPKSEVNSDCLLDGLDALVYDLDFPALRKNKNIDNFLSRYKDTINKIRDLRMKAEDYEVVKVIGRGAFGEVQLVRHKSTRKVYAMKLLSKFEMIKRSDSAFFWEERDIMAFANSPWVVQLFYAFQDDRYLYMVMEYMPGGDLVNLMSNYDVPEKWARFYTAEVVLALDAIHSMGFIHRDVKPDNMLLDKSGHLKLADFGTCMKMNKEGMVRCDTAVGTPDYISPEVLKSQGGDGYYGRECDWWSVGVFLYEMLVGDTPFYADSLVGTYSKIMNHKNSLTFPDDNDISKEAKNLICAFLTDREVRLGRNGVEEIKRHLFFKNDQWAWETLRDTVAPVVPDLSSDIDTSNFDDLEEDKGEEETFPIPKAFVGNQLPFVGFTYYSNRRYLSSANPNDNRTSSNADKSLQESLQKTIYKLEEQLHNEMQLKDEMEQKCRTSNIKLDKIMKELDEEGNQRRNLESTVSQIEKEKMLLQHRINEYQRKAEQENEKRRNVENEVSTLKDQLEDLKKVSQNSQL
Description: (§1) Following the pre-incubation, 10 μM ATP was added to initiate the reaction. After 60 minutes at room temperature, Molecular Devices IMAP™ binding solution was added to bind phosphorylated substrate. After 30 minutes of incubation in the presence of the IMAP™ beads, the fluorescence polarization was read and the ratio was reported as mP. IC50 values for compounds and EC50 values for ATP were calculated using the Prism software from Graphpad.

[2] = biological target: T2, ROCK2 (Homo sapiens, UniProt O75116); assay: Rho kinase inhibition assay (IMAP fluorescence polarization), ROCK2; format: biochemical;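 note: kinase reaction started with 10 µM ATP and run 60 min at room temperature, then phosphorylated substrate captured on IMAP beads for 30 min and fluorescence polarization read in mP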
T2 construct: purchased Upstate/Chemicon 14-451
T2 sequence (O75116 11-552 limits assumed): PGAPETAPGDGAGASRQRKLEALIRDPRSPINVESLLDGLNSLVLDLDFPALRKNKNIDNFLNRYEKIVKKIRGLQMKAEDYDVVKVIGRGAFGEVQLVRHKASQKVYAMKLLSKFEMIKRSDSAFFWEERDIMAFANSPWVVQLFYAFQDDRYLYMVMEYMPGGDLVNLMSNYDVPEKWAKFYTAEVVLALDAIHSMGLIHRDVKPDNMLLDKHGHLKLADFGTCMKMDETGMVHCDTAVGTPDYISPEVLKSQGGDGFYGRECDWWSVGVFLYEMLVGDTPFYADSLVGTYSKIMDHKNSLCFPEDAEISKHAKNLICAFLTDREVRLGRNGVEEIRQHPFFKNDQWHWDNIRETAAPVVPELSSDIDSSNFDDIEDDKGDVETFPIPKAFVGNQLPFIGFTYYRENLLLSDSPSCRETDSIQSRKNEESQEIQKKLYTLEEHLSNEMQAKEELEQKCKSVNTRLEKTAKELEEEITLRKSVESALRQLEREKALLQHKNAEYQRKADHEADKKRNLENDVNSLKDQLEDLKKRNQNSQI
Description: as §1

[3] = system: A-10 rat thoracic aorta cells; assay: PDGF-stimulated smooth muscle cell proliferation assay (BrdU incorporation); format: cell-based; conditions: A-10 cells, 10 ng/mL PDGF, BrdU incorporation, percent of total challenge-stimulated proliferation; for Percent of PDGF Induced Proliferation at 1 μM Avg: 1 μM test compound; for Percent of PDGF Induced Proliferation at 10 μM Avg: 10 μM test compound;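 for all read-outs here: cells kept in serum-free medium, BrdU allowed to incorporate for 24 h, then incorporated label detected fluorometrically with an anti-BrdU antibody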
[4] = biological target: T3, Akt3 human enzyme (Homo sapiens, UniProt Q9Y243); assay: Akt3 inhibition assay (IMAP FP); format: biochemical;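 note: kinase reaction run 60 min at room temperature after 30 µM ATP start, phosphorylated substrate captured on IMAP beads and read as fluorescence polarization (mP)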
T3 construct: purchased Upstate Chemicon 14-502
T3 sequence (Q9Y243 whole entry): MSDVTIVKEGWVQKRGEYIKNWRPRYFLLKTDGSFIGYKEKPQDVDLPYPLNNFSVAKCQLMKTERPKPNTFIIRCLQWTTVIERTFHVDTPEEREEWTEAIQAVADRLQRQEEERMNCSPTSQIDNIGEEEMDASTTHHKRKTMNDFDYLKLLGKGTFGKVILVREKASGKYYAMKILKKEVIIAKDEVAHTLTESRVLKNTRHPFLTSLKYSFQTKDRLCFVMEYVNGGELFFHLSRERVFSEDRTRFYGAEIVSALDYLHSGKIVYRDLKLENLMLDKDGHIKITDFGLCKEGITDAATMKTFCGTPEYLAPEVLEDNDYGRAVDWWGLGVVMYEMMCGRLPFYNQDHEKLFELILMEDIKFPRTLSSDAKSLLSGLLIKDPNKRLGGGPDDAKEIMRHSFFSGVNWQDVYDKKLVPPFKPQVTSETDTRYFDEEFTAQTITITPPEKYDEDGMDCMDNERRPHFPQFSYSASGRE

[5] = biological target: T4, p70S6K human enzyme (Homo sapiens, UniProt P23443, T412E); assay: p70S6K inhibition assay (IMAP FP); format: biochemical;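 note: kinase reaction run at room temperature, phosphorylated substrate captured on IMAP beads and read as fluorescence polarization in mP, IC50 then converted to Ki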
T4 construct: purchased Upstate Chemicon 14-486
T4 sequence (P23443 1-421 T412E limits assumed): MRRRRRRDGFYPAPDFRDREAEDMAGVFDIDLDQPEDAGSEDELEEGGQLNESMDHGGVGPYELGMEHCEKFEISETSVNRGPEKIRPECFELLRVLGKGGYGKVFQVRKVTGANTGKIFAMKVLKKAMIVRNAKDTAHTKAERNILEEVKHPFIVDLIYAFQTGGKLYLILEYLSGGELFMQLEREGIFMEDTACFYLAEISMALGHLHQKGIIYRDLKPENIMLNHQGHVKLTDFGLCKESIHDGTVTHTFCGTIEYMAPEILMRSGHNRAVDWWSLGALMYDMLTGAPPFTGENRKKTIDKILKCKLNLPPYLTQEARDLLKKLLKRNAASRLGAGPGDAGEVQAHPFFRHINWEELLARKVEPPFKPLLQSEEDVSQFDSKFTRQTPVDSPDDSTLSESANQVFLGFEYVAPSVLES

[6] = Compound plasma concentrations in unsensitized mice at 15 min post administration; format: in vivo; conditions: mouse, 15 μmol/kg; mean compound plasma concentration in mice at 15 minutes post oral administration; read-out: Mouse Oral PK
[7] = 10 μM ATP, read-out: ROCK2 Ki, Avg
[8] = 30 μM ATP, Ki=IC50/(1+([ATP Challenge]/EC50 ATP)), read-out: Akt3 Ki, Avg
[9] = 30 μM ATP, Ki=IC50/(1+([ATP Challenge]/EC50 ATP)), read-out: p70S6K Ki, Avg
[10] = average Ki, read-out: p70S6K Ki

Compound | Ki ([1]; Avg, 10 μM ATP) [nM] | Ki ([1]; average Ki) [nM] | Ki [2, 7] [nM] | Ki ([2]; average Ki, read-out: ROCK2 Ki) [nM] | Percent of PDGF Induced Proliferation at 1 μM Avg [3] [%] | Percent of PDGF Induced Proliferation at 10 μM Avg [3] [%] | Ki [4, 8] [nM] | Ki ([4]; average Ki, read-out: Akt3 Ki) [nM] | Ki [5, 9] [nM] | Ki [5, 10] [nM] | concentration at 15 min [6] [nM]
COc1ccc(CN2CC[C@@H](Nc3cccc4cnccc34)C2)cc1 [Compound 2.047, (R)-N-(1-(4-methoxybenzyl)pyrrolidin-3-yl)isoquinolin-5-amine] | 26.4 | 26.4 | 7 | 7 | 65.3 | 53.8 | 1940 | 1940 | 437 | 437 | 3
CCCS(=O)(=O)Nc1cc(CN2CCC[C@H](Nc3ccc4[nH]ncc4c3)C2)ccc1C [Compound 1.238, (S)-N-(5-((3-(1H-indazol-5-ylamino)piperidin-1-yl)methyl)-2-methylphenyl)propane-1-sulfonamide] | 61.2 | 61.2 | 1.5 | 1.5 | 40.7 | 48.6 | 4170 | 4170 | 2610 | 2610 | 48
CC(=O)NCc1cccc(CN2CCC[C@H](Nc3ccc4[nH]ncc4c3)C2)c1 [Compound 1.197] | 120 | 120 | 5 | 5 | 52.5 | 48.9 | 64100 | 64100 | 8690 | 8690 | 453
FC(F)(F)c1ccc(CN2CCC[C@H](Nc3ccc4[nH]ncc4c3)C2)cc1 [Compound 1.167, (S)-N-(1-(4-(trifluoromethyl)benzyl)piperidin-3-yl)-1H-indazol-5-amine] | 119 | – | 18.5 | – | 78.8 | 52.7 | 8250 | – | 1070 | – | –
Cc1ccc(S(=O)(=O)Nc2cc(CN3CCC[C@H](Nc4ccc5[nH]ncc5c4)C3)ccc2C)cc1 [Compound 1.239, (S)-N-(5-((3-(1H-indazol-5-ylamino)piperidin-1-yl)methyl)-2-methylphenyl)-4-methylbenzenesulfonamide] | 283 | 283 | 6.3 | 6.3 | 41.7 | 37.8 | 17700 | 17700 | 10000 | 10000 | 259
NC(=O)Cn1ccc2cc(CN3CCC[C@H](Nc4ccc5[nH]ncc5c4)C3)ccc21 [Compound 1.165, (S)-2-(5-((3-(1H-indazol-5-ylamino)piperidin-1-yl)methyl)-1H-indol-1-yl)acetamide] | 50.7 | 50.7 | 3.4 | 3.4 | 74.8 | 57.9 | 4140 | 4140 | 1630 | 1630 | 94
c1cc2cc(CN3CCC[C@H](Nc4ccc5[nH]ncc5c4)C3)ccc2s1 [Compound 1.175, (S)-N-(1-(benzo[b]thiophen-5-ylmethyl)piperidin-3-yl)-1H-indazol-5-amine] | 65.9 | 65.9 | 7.6 | 7.6 | 58.2 | 49.0 | 2820 | 2820 | 853 | 853 | 1130
CS(=O)(=O)Nc1cc(CN2CCC[C@H](Nc3ccc4[nH]ncc4c3)C2)ccc1Cl [Compound 1.213, (S)-N-(5-((3-(1H-indazol-5-ylamino)piperidin-1-yl)methyl)-2-chlorophenyl)methanesulfonamide] | 106 | 106 | 3 | 3 | 70.1 | 52.3 | 3210 | 3210 | 2100 | 2100 | 396
c1cc2ccc(CN3CCC[C@H](Nc4ccc5[nH]ncc5c4)C3)cc2[nH]1 [Compound 1.148, (S)-N-(1-((1H-indol-6-yl)methyl)piperidin-3-yl)-1H-indazol-5-amine] | 24.3 | 24.3 | 3.6 | 3.6 | 56.9 | 63.5 | 1130 | 1130 | 436 | 436 | 767
